Laboratory results as given in article PMC10854695, “Using Flavonoid Substitution Status to Predict Anticancer Effects in Human Melanoma Cancers: An In Vitro Study” (Cancers, 2024).
Where two headings read alike, the source gives them in different places.

Columns and labels:
[1] = tested on: C32 melanoma cells; assay: Neutral red uptake (NRU) assay, C32; details: Homo sapiens
[2] = tested on: A375 melanoma cells; assay: MTT cell viability assay, A375; details: Homo sapiens;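 also: Read-out is formazan absorbance at 570 nm after 2 h with MTT, with compounds in at most 0.1% v/v DMSO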
Protocol: (§1) The MTT colorimetric assay was performed as a preliminary evaluation of the cytotoxicity of the selected flavonoids according to the method described and validated by Strawa et al. [21]. Briefly, melanoma cells and fibroblasts were seeded in 96-well microplates at a density of 1 × 10^4 cells per well. Fibroblasts were used as a control cell line in order to assess the selectivity of the compounds. […] Subsequently, the cells were washed with PBS, incubated with MTT solution for 2 h, and lysed with dimethyl sulfoxide (DMSO) supplemented with 1% (v/v) Sorensen’s glycine buffer. The absorbance was measured using a microplate reader (EPOCH 2, BioTek, Winooski, VT, USA) at a wavelength of 570 nm. The compounds were used at a final DMSO concentration of no more than 0.1% (v/v) in each well. The results were generated from at least three independent experiments. […] The IC50 values were calculated with GraphPad Prism 9 software (GraphPad Software, San Diego, CA, USA).

[3] = in vitro; details: human
Protocol: as §1

[4] = tested on: C32 melanoma cells; assay: MTT cell viability assay, C32; details: Homo sapiens, read-out: IC50, cytotoxic activity, MTT test;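 also: MTT added for 2 h, cells lysed in DMSO, absorbance read at 570 nm, compound vehicle kept at or below 0.1% DMSO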
Protocol: as §1

[5] = tested on: A375 melanoma cells; assay: Neutral red uptake (NRU) assay, A375; details: Homo sapiens, read-out: IC50, cytotoxic activity, NRU assay
[6] = Neutral red uptake (NRU) assay, normal cells; details: human, human skin fibroblasts (CCD25Sk)
[7] = tested on: A375 melanoma cells; assay: [3H]-thymidine incorporation (DNA biosynthesis), A375; type: cell-based, human; details: read-out: IC50, effect on DNA biosynthesis ([3H]-thymidine incorporation)
[8] = tested on: A375 melanoma cells; assay: Apoptosis assay, annexin V/PI flow cytometry, A375; type: cell-based, human; details: A375, 25 µM, 48 h
[9] = tested on: cleaved caspase-3 and cleaved caspase-7 in C32 cells; assay: Immunofluorescence of cleaved caspase-3/-7, C32; type: cell-based, human; details: C32, 48 h, immunofluorescent staining
Protocol: Firstly, to examine fluorescent signals, cells were placed in the bottom of 96-well black plates at 1 × 10^4 cells per well and permitted to adhere for 24 h. […] After incubating and removing the medium, cells were fixed in 4% paraformaldehyde for 15 min. Later, cells were rinsed three times with PBS and permeabilized with 0.1% Triton X-100 for 5 min at room temperature. The 10% heat-inactivated goat serum in the PBS was used to block non-specific binding. Subsequently, cells were treated with the following antibodies overnight: anti-cleaved caspase 3 and anti-cleaved caspase-7. […] Cell nuclei were stained with Hoechst 33342 and F-actin was stained with Phalloidin-Atto 488. Fluorescent signals were captured using a BD Pathway 855 confocal microscope (Becton Dickinson, Franklin Lakes, NJ, USA). The mean fluorescence intensity was calculated using ImageJ software (National Institutes of Health, Bethesda, Rockville, MD, USA).

[10] = tested on: human skin fibroblasts (CCD25Sk); assay: [3H]-thymidine incorporation (DNA biosynthesis), normal cells; type: cell-based; details: Homo sapiens, Skin fibroblast, read-out: IC50, effect on DNA biosynthesis ([3H]-thymidine incorporation)
Protocol: (§2) The inhibition of DNA biosynthesis was evaluated using [^3H]-thymidine incorporation into the DNA of melanoma cells (C32, A375) and fibroblasts treated with the studied compounds [21]. The cells were briefly seeded in 24-well plates (1 × 10^5 cells per well) and allowed to adhere for 24 h. […] After incubation for 24, 48, and 72 h, the cells were rinsed three times with PBS. Then, cells were lysed in 1 mL of 0.1 M NaOH containing 1% SDS. The cell lysate was moved into scintillation vials containing scintillation liquid, and the radioactivity of the samples was measured using a liquid scintillation analyzer (Perkin-Elmer, Waltham, MA, USA).

[11] = tested on: C32 melanoma cells; assay: [3H]-thymidine incorporation (DNA biosynthesis), C32; type: cell-based, human; details: read-out: IC50, effect on DNA biosynthesis ([3H]-thymidine incorporation)
Protocol: as §2

[12] = MTT cell viability assay, normal cells; details: human, human skin fibroblasts (CCD25Sk);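 also: fibroblasts served as non-cancer comparison line for selectivity versus melanoma cells, MTT reduction read as absorbance at 570 nm after 2 h dye exposure, compounds in ≤0.1% DMSO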
Protocol: as §1

[13] = tested on: caspases, PARP, phospho-RSK in C32 cells; assay: Western immunoblot of apoptosis mediators and RSK, C32; type: cell-based, human; details: C32, 48 h, Western blot
Protocol: (§3) Floating cells were harvested by centrifugation of the conditioned media (300× g, 5 min). Cell pellet and adherent cells were lysed in a cell lysis buffer supplemented with inhibitors of proteases and phosphatases. The cell lysate was sonicated (2 × 10 s) on ice with an ultrasonic homogenizer (UP200S, Hielscher Ultrasonics GmbH, Teltow, Germany) and centrifuged for 10 min at 10,000× g. The supernatant was collected and stored in a freezer at −70 °C. Protein concentrations in the cell supernatants were determined using a Lowry assay. Obtained proteins were dissolved on SDS-PAGE gels (7.5%, 10%, or 12%) using the Mini-Protean Tetra system. The proteins were transferred to nitrocellulose membranes using the Mini Trans-Blot Cell wet blotting system. The 5% skim milk was used to block membranes. Then, membranes were probed for 24 h at 4 °C with the following antibodies: anti-phospho-RSK, anti-RSK, anti-PARP, anti-cleaved PARP, anti-caspase-8, anti-caspase-9, anti-caspase-7, anti-caspase-3, and anti-actin. Membranes were incubated with an ECL-HRP (enhanced chemiluminescence-horseradish peroxidase) substrate, and the signal was spotted using the BioSpectrum Imaging System and VisionWorks LS software 7.0 (Ultra-Violet Products, Ltd., San Gabriel, CA, USA). The intensity of the bands was quantified by densitometric analysis using UVIBand software, version 15.08d (Uvitec Ltd., Cambridge, UK).

[14] = tested on: caspases, PARP, phospho-RSK in A375 cells; assay: Western immunoblot of apoptosis mediators and RSK, A375; type: cell-based, human; details: A375, 48 h, Western blot
Protocol: as §3

[15] = C32, 24 h, read-out: IC50, cytotoxic activity, NRU assay, C32, 24 h
[16] = C32, 48 h, read-out: IC50, cytotoxic activity, NRU assay, C32, 48 h
[17] = C32, 72 h, read-out: IC50, cytotoxic activity, NRU assay, C32, 72 h
[18] = A-375, 24 h, read-out: IC50, cytotoxic activity, MTT test, A375, 24 h
[19] = A-375, 48 h, read-out: IC50, cytotoxic activity, MTT test, A375, 48 h
[20] = A-375, 72 h, read-out: IC50, cytotoxic activity, MTT test, A375, 72 h

Row | Compound | IC50 [1, 15] | IC50 [1, 16] | IC50 [1, 17] | IC50 [2, 18] | IC50 [2, 19] | IC50 [2, 20] | IC50 at 24 h [3] | IC50 at 48 h [3] | IC50 at 72 h [3] | IC50 ([4]; C32, 24 h) | IC50 ([4]; C32, 48 h) | IC50 ([4]; C32, 72 h) | IC50 ([5]; A-375, 24 h) | IC50 ([5]; A-375, 48 h) | IC50 ([5]; A-375, 72 h) | IC50 at 24 h [6] | IC50 at 48 h [6] | IC50 at 72 h [6] | further results
1 | O=c1cc(-c2ccccc2)oc2cc(O)cc(O)c12 [Compound 14, chrysin] | 89.2 ± 7.8 µM | 44.7 ± 3.9 µM | 25.6 ± 2.4 µM | 100 to 200 µM | 66.4 ± 4.5 µM | 34.4 ± 2.8 µM | > 200 µM | > 200 µM | 71.2 ± 4.5 µM | 100 to 200 µM | 96.4 ± 7 µM | 58.9 ± 4.5 µM | 52.4 ± 3.5 µM | 34.5 ± 2.3 µM | 33.1 ± 2.8 µM | 100 to 200 µM | 65.7 ± 4.2 µM | 76.3 ± 4.7 µM | 
2 | O=c1cc(-c2ccccc2)oc2ccc(O)c(O)c12 [Compound 15, 5,6-dihydroxyflavone] | 72.6 ± 5.5 µM | 18.2 ± 2.1 µM | 15.4 ± 1.1 µM | 86 ± 6.3 µM | 36.4 ± 2 µM | 26.4 ± 1.2 µM |  |  |  | 100 to 200 µM | 47.5 ± 3.5 µM | 23.5 ± 1.9 µM | 53.3 ± 4.6 µM | 16 ± 1.1 µM | 13.6 ± 1.1 µM | > 200 µM | 100 to 200 µM | 100 to 200 µM | IC50 ([7]; A375, 48 h): 32.4 ± 2.4 µM; IC50 ([7]; Homo sapiens, A-375, A375, 24 h): > 200 µM; IC50 ([7]; Homo sapiens, A-375, A375, 48 h): 32.4 ± 0.49 µM; IC50 ([7]; Homo sapiens, A-375, A375, 72 h): 31.4 ± 1.7 µM; level of early apoptotic cells [8]: 42.0 ± 4.5%; level of late apoptotic cells [8]: 8.9 ± 2.2%; caspase-3 expression [9]: notably extended; IC50 ([10]; 24 h): 175 ± 7.6 µM; IC50 ([10]; 48 h): > 200 µM; IC50 ([10]; 72 h): > 200 µM; IC50 ([11]; C32, 48 h): 20 ± 1.9 µM; IC50 ([11]; Homo sapiens, C32, C32, 24 h): > 200 µM; IC50 ([11]; Homo sapiens, C32, C32, 48 h): 20.1 ± 0.98 µM; IC50 ([11]; Homo sapiens, C32, C32, 72 h): 20.3 ± 1.2 µM; IC50 at 24 h [12]: > 200 µM; IC50 at 48 h [12]: > 200 µM; IC50 at 72 h [12]: > 200 µM; cleaved PARP and caspase-9 [13]: generated cleaved PARP and caspase-9; expression of cleaved caspase-8 [14]: increased
3 | O=C(O)C1OC(Oc2c(-c3ccc(O)cc3)oc3cc(O)cc(O)c3c2=O)C(O)C(O)C1O (stereo not shown) [Compound 21, kaempferol 3-O-glucuronide] | > 200 µM | > 200 µM | > 200 µM | > 200 µM | > 200 µM | > 200 µM | > 200 µM | > 200 µM | > 200 µM | > 200 µM | > 200 µM | > 200 µM | > 200 µM | > 200 µM | > 200 µM | > 200 µM | > 200 µM | > 200 µM | 
4 | COc1ccc(-c2oc3c(CC=C(C)C)c(O[C@@H]4O[C@H](CO)[C@@H](O)[C@H](O)[C@H]4O)cc(O)c3c(=O)c2O[C@@H]2O[C@@H](C)[C@H](O)[C@@H](O)[C@H]2O)cc1 [Compound 23, icariin] | > 200 µM | > 200 µM | > 200 µM | > 200 µM | > 200 µM | > 200 µM | > 200 µM | > 200 µM | > 200 µM | > 200 µM | > 200 µM | > 200 µM | > 200 µM | > 200 µM | > 200 µM | > 200 µM | > 200 µM | > 200 µM | 
